From paper PMC12114840, “Exploring the Anticancer Properties of 1,2,3-Triazole-Substituted Andrographolide Derivatives” (Pharmaceuticals, 2025)

What was measured:
[1] = test system: p21; assay: Western blot, p21; type: cell-based, human; conditions: PANC-1, 3 and 6 μM, 48 h
Procedure: (§1) To elucidate the antiproliferative activity of compound 12, cell cycle analysis was performed in the PANC-1 cancer cell line. The cell cycle is a highly controlled process where cellular DNA is replicated and then equally partitioned in two daughter cells. The cell cycle is composed of two distinct phases: the interphase, where the cell grows and undergoes three distinct periods—the G1 (pre-DNA synthesis), S (DNA synthesis), and G2 (pre-division) phases—and mitosis, where cell undergoes division. The newly formed daughter cells then enter the preparatory phases of interphase, and start the G0 phase (quiescence). […] Thus, PANC-1 cells were treated with compound 12 at 3 and 6 µM for 48 h and then analyzed by flow cytometry (Figure 1B,C).
PANC-1 (1.5 × 10^5 cells/well) were seeded in six-well plates, allowed to adhere overnight, and treated with 3 µM and 6 µM of compound 12 for 48 h. Protein lysates were obtained in RIPA buffer with protease inhibitors (Sigma-Aldrich, Lisbon, Portugal) and quantified using Pierce® bicinchoninic acid (BCA) protein assay reagents (Thermo Fisher Scientific, Porto Salvo, Portugal). […] The signal was detected with enhanced chemiluminescence (ECL) (Amersham, GE Healthcare Life Sciences, Enzymatic, Portugal) using the ChemiDoc^TM MP Imaging system (BioRad Laboratories, Amadora, Portugal).

[2] = test system: CCD-18Co cells (non-tumorigenic colon); assay: Sulforhodamine B (SRB) antiproliferative assay, CCD-18Co; type: cell-based; conditions: Homo sapiens, CCD-18Co non-tumorigenic, 48 h, mean ± SEM of four to six independent experiments
Procedure: (§2) The antiproliferative properties of andrographolide and all prepared derivatives (2–26) were evaluated against a panel of different cancer cell lines, including human pancreatic ductal adenocarcinoma (PANC-1), colorectal adenocarcinoma (HCT116), melanoma (A375), breast adenocarcinoma (MCF-7) and a non-tumorigenic colon (CCD-18Co) cell line using the sulforhodamine B assay.
(§3) Human breast adenocarcinoma MCF-7, pancreatic ductal adenocarcinoma PANC-1, melanoma A375, and non-tumorigenic colon CCD-18Co cell lines were purchased from ATCC (Rockville, MD, USA). Human colorectal adenocarcinoma HCT116 cells were kindly provided by B. Vogelstein (The Johns Hopkins Kimmel Cancer Center, Baltimore, MD, USA). Tumor cells were routinely cultured in RPMI-1640 medium with UltraGlutamine from Biowest (VWR, Carnaxide, Portugal) supplemented with 10% fetal bovine serum (FBS) from Biowest (VWR, Carnaxide, Portugal), except for the PANC-1 cells, which were grown in DMEM (4.5 g/L glucose) with stable L-glutamine and sodium pyruvate and supplemented with 10% FBS. The non-tumorigenic CCD-18Co cells were cultured in EMEM (Lonza, VWR, Carnaxide, Portugal), supplemented with 10% FBS. All cells were incubated at 37 °C in a humidified atmosphere of 5% CO2. Routine mycoplasma testing was performed using the MycoAlert™ PLUS mycoplasma detection kit (Lonza).
(§4) For the evaluation of the compound effect on cell proliferation, human cell lines were seeded in 96-well plates at a density of 5.0 × 10^3 (HCT116, MCF-7, PANC-1, A375, and CCD-18Co) cells per well, for 24 h. Cells were then treated with serial dilutions of the compound (ranging from 0.63 to 30 µM), for an additional 48 h incubation period. The growth inhibitory effects were assessed by SRB assay, as described in [58], and the half-maximal inhibitory concentration (IC50 values) were determined for each cell line using the GraphPad Prism software version 7.0 (La Jolla, CA, USA). Culture medium containing a maximum of 0.05% dimethyl sulfoxide (DMSO) was used as negative control.

[3] = test system: PANC-1 cells (pancreatic ductal adenocarcinoma); assay: Sulforhodamine B (SRB) antiproliferative assay, PANC-1; type: cell-based, human
Procedure: as §2, §3, §4

[4] = test system: MCF-7 cells (breast adenocarcinoma); assay: Sulforhodamine B (SRB) antiproliferative assay, MCF-7; type: cell-based; conditions: Homo sapiens, MCF7, MCF-7, 48 h, mean ± SEM of four to six independent experiments
Procedure: as §2, §3, §4

[5] = test system: PANC-1 cells; assay: Scratch (wound healing) assay; type: cell-based, human; conditions: PANC-1, 1.35 µM, 6 h and 24 h
Excerpt: Metastasis remains the greatest challenge in the clinical management of cancer. Cell migration is a key process that, during the whole cascade of cancer development, contributes to tumor invasion and metastasis. The scratch assay is a common in vitro technique used to assess two-dimensional cell migration and motility. It involves creating an artificial scratch or “wound” in a confluent monolayer of cells and then monitoring the progression of the wound over time. Therefore, a wound healing assay was used to evaluate the effect of compound 12 on the cell migration ability of PANC-1 cells.
Totals of 6 × 10^5 PANC-1 cells/well were grown to confluence in 6-well plates, and a fixed-width wound was created in the cell monolayer using a sterile 10 µL micropipette tip. Cells were treated with DMSO or 1.35 µM of compound 12 and images of the wound were captured at different time points (0, 6, and 24 h) using an inverted NIKON TE 2000-U microscope from Nikon Instruments Inc. (Izasa, Carnaxide, Portugal) at 100× magnification with a DXM1200F digital camera (Nikon Instruments Inc., Amstelveen, The Netherlands) and NIS-Elements microscope imaging software (version 4; Nikon Instruments Inc.). Wound closure was calculated by subtracting the wound area (measured using Fiji Software, version 1.54f) at the indicated time point of treatment from the wound area at the starting point (0 h).

[6] = test system: PANC-1 cells; assay: Cell cycle analysis by flow cytometry (propidium iodide); type: cell-based, human; conditions: PANC-1, 3 μM and 6 μM, 48 h
Procedure: as §1
The analyses were performed as described in the literature. In particular, 1.5 × 10^5 PANC-1 cells/well were seeded in 6-well plates and allowed to adhere overnight, followed by treatment with 3 µM and 6 µM of compound 12 for 48 h. For cell cycle analysis, cells were stained with propidium iodide (Sigma-Aldrich) and subjected to flow cytometry. Cell cycle phases were identified and quantified using the FlowJo X 10.0.7 software (Treestar, Ashland, OR, USA). For apoptosis analysis, cells were stained using the Annexin V-FITC Apoptosis Detection Kit I from BD Biosciences (Enzifarma, Porto, Portugal), according to the manufacturer’s instructions. […]

C=C1CC[C@@H]2[C@](C)(COC(C)=O)[C@H](OC(C)=O)CC[C@@]2(C)[C@@H]1C[C@H](C1=CCOC1=O)n1cc(-c2ccc(Br)cc2)nn1 [Compound 12, (12R)-4-bromophenyl-1,2,3-triazole-3,19-diacetoxy-14-deoxy-andrographolide]
expression of p21 [1]: increased the expression of p21 in a dose-dependent manner
IC50 [2]: 9.6 ± 2.3 µM
IC50 ([3]; Homo sapiens, PANC-1, 48 h, SRB, mean ± SEM of four to six independent experiments): 3.4 ± 0.9 µM
IC10 ([3]; PANC-1, concentration which has no significant effect on cell proliferation): 1.35 µM
IC50 [4]: 6.8 ± 0.3 µM
wound closure compared to control [5]: significantly reduced the wound closure
G2/M population compared to the control [6]: significant increase in the G2/M population
